Reference: patent US20170360805A1, “MOTOR-ASSOCIATED NEURODEGENERATIVE DISEASE AND METHODS OF TREATMENT” (priority 2016, published 2017)

Columns and labels:
[1] = system: primary rat cortical neurons; experiment: Glutamate excitotoxicity model, MTT cell viability, primary rat cortical neurons; format: cell-based; conditions: 24 hours, 0.01-10 μM, FIG. 7B
Procedure: (§1) FIG. 7A-FIG. 7B illustrate the effects of 15d-PGJ2 at four different concentrations (0.01, 0.1, 1, and 10 μM) on glutamate induced neurotoxicity in NSC-34 cells (left-FIG. 7A) and primary rat cortical neurons (right-FIG. 7B). Cell viability was determined by the MTT assay. Data are shown as mean+SEM (n=6 or 12) as percentage of vehicle control (VC). Statistical significance is indicated by *<0.05 and **<0.01 as determined by One-Way ANOVA followed by Dunnett's Multiple Comparison Test, in comparison to glutamate lesion (L or Glu).
(§2) Primary cortical neurons were prepared from time mated Sprague Dawley rats. Animals were sacrificed and embryos were dissected in Calcium and Magnesium free Hanks Balanced Salt Solution (CMF-HBSS) containing 15 mM HEPES and 10 mM NaHCO3, pH 7.2. Embryos were decapitated, skin and skull gently removed and cortical hemispheres were separated. […] Cells were counted in a hemacytometer and 4×10^4 cells per well were seeded on poly-D-lysine pre-coated 96-well plates. […]
Viability of cultures was determined by the MTT assay using a plate-reader (570 nm). […] Optical density was measured with a plate-reader at wavelength 570 nm. Cell survival rate was expressed as optical density (OD). Values were calculated as percent of control values (vehicle control). […]

NSC-34 cells = experiment: Glutamate excitotoxicity model, MTT cell viability, NSC-34 cells; format: cell-based, mouse; conditions: 24 hours, 0.01-10 μM, FIG. 7A
Procedure: as §1
Viability of cultures was determined by the MTT assay using a plate-reader (570 nm). This assay allows the measurement of the mitochondrial dehydrogenase activity which reduces yellow MTT to dark blue formazan crystals. Since this reaction was catalyzed in living cells, this assay was used for the determination of cell viability. MTT solution was added to each well in a final concentration of 0.5 mg/ml. After 2 hours the MTT containing medium was aspired. Cells were lysed in 3% SDS and the formazan crystals were dissolved in isopropanol/HCl. Optical density was measured with a plate-reader at wavelength 570 nm. Cell survival rate was expressed as optical density (OD). Values were calculated as percent of control values (vehicle control).
15d-PGJ2 was tested in a glutamate excitotoxicity model, a model of ALS. […]

[2] = system: TDP43 stress granule formation of U2OS cells expressing GFP-labeled human TDP43; experiment: TDP43 stress granule assay (arsenite challenge, fluorescence imaging); format: cell-based; conditions: Example 2, FIG. 4; 0.01, 0.1, 1 and 10 μM, 24 h pre-incubation, sodium arsenite 250 μM 120 min; Student's t Test vs arsenite control
M3 network genes = experiment: Validation of M3 network activation by RNA sequencing; format: cell-based; conditions: 1 μM, primary rat cortical neurons, no glutamate lesion, FIG. 5
Procedure: Bioinformatics predictions of M3 network activation from isoflupredone was validated in naïve neuronal cells (primary rat cortical neurons).
In parallel, 5 different test items and 2 reference items at 1 concentration each were applied to primary rat cortical neurons from […] of Sprague Dawley rats. The compounds were incubated for 8 days. […] Cell viability was determined by MTT and RNA was isolated. A number of ≧3 technical replicates were used.
Test item 1: isoflupredone (1 micromolar)
as §2
Messenger RNA was extracted from the cells and sequencing libraries were prepared using the TruSeq kit and poly-A selection. The resulting libraries were sequenced at a depth of 30 million reads per sample using single-ended 75 bp reads.

Structure (SMILES)	effect on glutamate induced neurotoxicity (cell viability, MTT) [1]	effect on glutamate induced neurotoxicity (cell viability, MTT) (NSC-34 cells)	aggregation of TDP43 compared to the negative control (mean number of fluorescent aggregates per cell) [2]	activation of M3 network genes (pattern of activation) (M3 network genes)
CCCCC/C=C\C=C1\C(=O)C=CC1C/C=C\CCCC(=O)O (centres unmarked) [15d-PGJ2, 15-Deoxy-Δ12,14-prostaglandin J2]	neuroprotective effect	neuroprotective effect		
C[C@]12C=CC(=O)C=C1CC[C@H]1[C@@H]3CC[C@](O)(C(=O)CO)[C@@]3(C)C[C@H](O)[C@@]12F [isoflupredone, (11β)-9-Fluoro-11,17,21-trihydroxypregna-1,4-diene-3,20-dione]			statistically significant decrease	largely up-regulation
CC(=O)[C@H]1CC[C@H]2[C@@H]3C[C@H](C)C4=CC(=O)CC[C@]4(C)[C@H]3[C@@H](O)C[C@]12C [medrysone]			did not show a statistically significant effect	
